Biological target: T1, Human orexin receptor type 2 (Homo sapiens, UniProt O43614)
T1 sequence (O43614 1-444): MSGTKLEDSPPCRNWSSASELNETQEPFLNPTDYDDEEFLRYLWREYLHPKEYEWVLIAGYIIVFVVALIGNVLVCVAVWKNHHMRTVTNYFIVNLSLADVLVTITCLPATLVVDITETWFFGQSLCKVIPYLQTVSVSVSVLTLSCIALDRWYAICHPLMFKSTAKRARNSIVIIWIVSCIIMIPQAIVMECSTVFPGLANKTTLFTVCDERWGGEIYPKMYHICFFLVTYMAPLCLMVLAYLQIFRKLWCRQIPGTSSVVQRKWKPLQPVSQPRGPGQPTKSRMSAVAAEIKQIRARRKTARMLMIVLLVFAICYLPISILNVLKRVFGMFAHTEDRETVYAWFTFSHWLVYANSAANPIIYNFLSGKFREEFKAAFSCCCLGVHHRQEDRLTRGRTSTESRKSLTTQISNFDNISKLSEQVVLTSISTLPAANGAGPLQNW
Assay: Test Example 1: agonist activity for orexin receptor type 2 (aequorin luminescence, intracellular calcium mobilization)
Conditions: compound 10 μm; CHO cells transiently expressing human orexin receptor type 2 and apoaequorin; relative percentage of luminescence for the luminescence (100%) of Orexin A (100 μM)

| Agonist Activity (%) | Compound |
| --- | --- |
| 104% | Cc1ccc(C2CCN(C(=O)Nc3ccccc3N3CCN(C(C)C)C(C)C3)CC2)cc1 (racemic) [Example 28, Rac-4-(4-methylphenyl)-N-{2-[3-methyl-4-(propan-2-yl)piperazin-1-yl]phenyl}piperidine-1-carboxamide] |
| 196% | Cc1ncc(C2(C)CCN(C(=O)Nc3c(Cl)cccc3N3CCN(C(C)C)CC3)CC2)o1 [Example 92, N-{2-chloro-6-[4-(propan-2-yl)piperazin-1-yl]phenyl}-4-methyl-4-(2-methyl-1,3-oxazol-5-yl)piperidine-1-carboxamide] |
| 178% | CCc1nc(C2(F)CCN(C(=O)Nc3c(Cl)cccc3N3CCN(C(C)C)CC3)CC2)no1 [Example 95, N-{2-chloro-6-[4-(propan-2-yl)piperazin-1-yl]phenyl}-4-(5-ethyl-1,2,4-oxadiazol-3-yl)-4-fluoropiperidine-1-carboxamide] |
| 145% | CC(C)N1CCN(c2cccc(Cl)c2NC(=O)N2CCC(C)(c3noc(C4CCCC4)n3)CC2)CC1 [Example 74, N-{2-chloro-6-[4-(propan-2-yl)piperazin-1-yl]phenyl}-4-(5-cyclopentyl-1,2,4-oxadiazol-3-yl)-4-methylpiperidine-1-carboxamide] |
| 156% | CC(C)N1CCN(c2ccccc2NC(=O)N2CCC(C)(c3ccccc3)CC2)CC1 [Example 5, 4-methyl-4-phenyl-N-{2-[4-(propan-2-yl)piperazin-1-yl]phenyl}piperidine-1-carboxamide] |
| 150% | CC1(c2noc(C3CC3)n2)CCN(C(=O)Nc2c(Cl)cccc2C2=CCN(C3CCC3)CC2)CC1 [Example 131, N-[2-chloro-6-(1-cyclobutyl-1,2,3,6-tetrahydropyridin-4-yl)phenyl]-4-(5-cyclopropyl-1,2,4-oxadiazol-3-yl)-4-methylpiperidine-1-carboxamide] |
| 157% | CC(C)N1CCN(c2cccc(Cl)c2NC(=O)N2CCC(C)(c3ncc(C4CC4)s3)CC2)CC1 [Example 101, N-{2-chloro-6-[4-(propan-2-yl)piperazin-1-yl]phenyl}-4-(5-cyclopropyl-1,3-thiazol-2-yl)-4-methylpiperidine-1-carboxamide] |
| 184% | CC(C)[C@@H]1CO[C@H](c2cccc(Cl)c2NC(=O)N2CCC(C)(c3noc(C4CC4)n3)CC2)CN1 (racemic) [Example 168, Rac-N-{2-chloro-6-[(2R,5R)-5-(propan-2-yl)morpholin-2-yl]phenyl}-4-(5-cyclopropyl-1,2,4-oxadiazol-3-yl)-4-methylpiperidine-1-carboxamide] |
| 96% | Cc1nnc(C2(C)CCN(C(=O)Nc3ccccc3N3CCN(C(C)C)CC3)CC2)o1 [Example 165, 4-Methyl-4-(5-methyl-1,3,4-oxadiazol-2-yl)-N-{2-[4-(propan-2-yl)piperazin-1-yl]phenyl}piperidine-1-carboxamide] |
| 123% | CC(C)N1CCN(c2cccc(F)c2NC(=O)N2CCC(c3ccccn3)CC2)CC1 [Example 36, N-{2-fluoro-6-[4-(propan-2-yl)piperazin-1-yl]phenyl}-4-(pyridin-2-yl)piperidine-1-carboxamide] |
| 68% | Cc1ccc(-c2cccc(F)c2NC(=O)N2CCC(C)(c3cc(C4CC4)on3)CC2)cn1 [Example 68, 4-(5-cyclopropyl-1,2-oxazol-3-yl)-N-[2-fluoro-6-(6-methylpyridin-3-yl)phenyl]-4-methylpiperidine-1-carboxamide] |
| 129% | CC(C)N1CCN(c2cccc(Cl)c2NC(=O)N2CCC(C)(c3nc4ccccc4o3)CC2)CC1 [Example 66, 4-(1,3-benzoxazol-2-yl)-N-{2-chloro-6-[4-(propan-2-yl)piperazin-1-yl]phenyl}-4-methylpiperidine-1-carboxamide] |
| 156% | Cc1ccc(C2CCN(C(=O)Nc3c(Cl)cccc3C3CCN(C(C)C)CC3)CC2)cc1 [Example 133, N-{2-chloro-6-[1-(propan-2-yl)piperidin-4-yl]phenyl}-4-(4-methylphenyl)piperidine-1-carboxamide] |
| 116% | Cc1ccc(C2CCN(C(=O)Nc3c(F)cccc3N3C[C@@H]4C[C@H]3CN4C(C)C)CC2)cc1 [Example 150, N-{2-fluoro-6-[(1S,4S)-5-(propan-2-yl)-2,5-diazabicyclo[2.2.1]heptan-2-yl]phenyl}-4-(4-methylphenyl)piperidine-1-carboxamide] |
| 119% | COC(=O)c1cccc(N2CCN(C(C)C)CC2)c1NC(=O)N1CCC(c2ccc(C)cc2)CC1 [Example 38, methyl 2-{[4-(4-methylphenyl)piperidine-1-carbonyl]amino}-3-[4-(propan-2-yl)piperazin-1-yl]benzoate] |
| 75% | Cc1ccc(C2CCN(C(=O)Nc3c(F)cccc3OC3CCN(C(C)C)CC3)CC2)cc1 [Example 62, N-(2-fluoro-6-{[1-(propan-2-yl)piperidin-4-yl]oxy}phenyl)-4-(4-methylphenyl)piperidine-1-carboxamide] |
| 126% | Cc1ccc(C23CCN(C(=O)Nc4ccccc4N4CCN(C(C)C)CC4)CC2C3)cc1 (centres unmarked) [Example 14, 6-(4-methylphenyl)-N-{2-[4-(propan-2-yl)piperazin-1-yl]phenyl}-3-azabicyclo[4.1.0]heptane-3-carboxamide] |
| 151% | CC(C)N1CCC(c2cccc(F)c2NC(=O)N2CCC(c3cc(C4CC4)on3)CC2)CC1 [Example 51, 4-(5-cyclopropyl-1,2-oxazol-3-yl)-N-{2-fluoro-6-[1-(propan-2-yl)piperidin-4-yl]phenyl}piperidine-1-carboxamide] |
| 165% | CC(C)N1CCN(c2cccc(Cl)c2NC(=O)N2CCC(C)(c3noc(CC4CC4)n3)CC2)CC1 [Example 105, N-{2-chloro-6-[4-(propan-2-yl)piperazin-1-yl]phenyl}-4-[5-(cyclopropylmethyl)-1,2,4-oxadiazol-3-yl]-4-methylpiperidine-1-carboxamide] |
| 160% | CC(C)N1CCN(c2cccc(Cl)c2NC(=O)N2CCC(C)(c3csc(C4CC4)n3)CC2)CC1 [Example 96, N-{2-chloro-6-[4-(propan-2-yl)piperazin-1-yl]phenyl}-4-(2-cyclopropyl-1,3-thiazol-4-yl)-4-methylpiperidine-1-carboxamide] |
| 165% | Cc1cnc(C2CCN(C(=O)Nc3c(Cl)cccc3N3CCN(C(C)C)CC3)CC2)nc1 [Example 98, N-{2-chloro-6-[4-(propan-2-yl)piperazin-1-yl]phenyl}-4-(5-methylpyrimidin-2-yl)piperidine-1-carboxamide] |
| 93% | CC(C)c1ccc(-c2cccc(F)c2NC(=O)N2CCC(C)(c3noc(C4CC4)n3)CC2)cc1 [Example 65, 4-(5-cyclopropyl-1,2,4-oxadiazol-3-yl)-N-[3-fluoro-4′-(propan-2-yl) [1,1′-biphenyl]-2-yl]-4-methylpiperidine-1-carboxamide] |
| 133% | Cc1ccc(C2CCN(C(=O)Nc3c(C)cccc3N3CCN(C(C)C)CC3)CC2)cc1 [Example 17, 4-(4-methylphenyl)-N-{2-methyl-6-[4-(propan-2-yl)piperazin-1-yl]phenyl}piperidine-1-carboxamide] |

| Compound | Agonist Activity (%) |
| --- | --- |
| CC(C)N1CCN(c2cccc(F)c2NC(=O)N2C3CCC2CC(c2nc(C4CC4)no2)C3)CC1 (centres unmarked) [Example 32, 3-(3-cyclopropyl-1,2,4-oxadiazol-5-yl)-N-{2-fluoro-6-[4-(propan-2-yl)piperazin-1-yl]phenyl}-8-azabicyclo[3.2.1]octane-8-carboxamide] | 30% |
| Cc1ccc(C2CCN(C(=O)Nc3c(F)cccc3N3CC4CCC(C3)N4C(C)C)CC2)cc1 [Example 154, N-{2-fluoro-6-[8-(propan-2-yl)-3,8-diazabicyclo[3.2.1]octan-3-yl]phenyl}-4-(4-methylphenyl)piperidine-1-carboxamide] | 40% |
| Cc1ccc(C2CCN(C(=O)Nc3c(F)cccc3C3=CCN(C(C)C(F)F)CC3)CC2)cc1 (centres unmarked) [Example 135, N-{2-[1-(1,1-difluoropropan-2-yl)-1,2,3,6-tetrahydropyridin-4-yl]-6-fluorophenyl}-4-(4-methylphenyl)piperidine-1-carboxamide] | 103% |
| CC(C)N1CC=C(c2cccc(Cl)c2NC(=O)N2CCC(C)(c3cc(C4CC4)on3)CC2)CC1 [Example 144, N-{2-chloro-6-[1-(propan-2-yl)-1,2,3,6-tetrahydropyridin-4-yl]phenyl}-4-(5-cyclopropyl-1,2-oxazol-3-yl)-4-methylpiperidine-1-carboxamide] | 143% |
| CC(C)N1CC=C(c2cccc(F)c2NC(=O)N2CCC(C)(c3noc(C4CC4)n3)CC2)CC1 [Example 44, 4-(5-cyclopropyl-1,2,4-oxadiazol-3-yl)-N-{2-fluoro-6-[1-(propan-2-yl)-1,2,3,6-tetrahydropyridin-4-yl]phenyl}-4-methylpiperidine-1-carboxamide] | 143% |
| Cc1ccc(C2CC3CCC(C2)N3C(=O)Nc2c(F)cccc2N2CCN(C(C)C)CC2)cc1 (centres unmarked) [Example 41, N-{2-fluoro-6-[4-(propan-2-yl)piperazin-1-yl]phenyl}-3-(4-methylphenyl)-8-azabicyclo[3.2.1]octane-8-carboxamide] | 47% |
